From article PMC5104425, “A Novel Selective Inhibitor of Delta-5 Desaturase Lowers Insulin Resistance and Reduces Body Weight in Diet-Induced Obese C57BL/6J Mice” (PLoS ONE, 2016)

How the values were obtained:
Assay type in all cases: in vivo, C57BL/6J mice
fat tissues of DIO mice = experiment: RT-qPCR gene expression in epididymal and subcutaneous fat of DIO mice after 6-week treatment; conditions: 10 mg/kg, 6 weeks
Procedure: Mice fed a HFD that has 41% kcal from fat and contains no AA (D12079B; Research diets, Inc.) from 5 weeks of age were divided into 2 groups at the age of 8 weeks (8 animals per group), and were administered 10 mg/kg compound-326 or vehicle for 6 weeks. After the treatment period, mice were sacrificed and epididymal and subcutaneous fats were harvested for mRNA analysis. Nine animals maintained on a standard chow (CE2, CLEA Japan, Osaka) were used as control.
(§1) Total RNA was extracted and purified using RNeasy Mini Kit (QIAGEN, USA). First-strand cDNA was synthesized using High Capacity cDNA Reverse Transcription Kits (Thermo Fisher, USA). The mRNA levels were quantified by an ABI Prism 7900 TaqMan PCR system (Thermo Fisher, USA) according to the manufacturer’s instruction using TaqMan® Universal PCR Mastermix with the primer-probe sets of TaqMan Gene Expression Assays (Thermo Fisher, USA) for the following genes: Ccl2 (chemokine (C-C motif) ligand 2; Mm99999056_m1), Cd68 (CD68 antigen; Mm03047343_m1), Adgre1 (adhesion G protein-coupled receptor E1; Mm00802529_m1), Tnf (tumor necrosis factor; Mm00443258_m1), Il6 (interleukin 6; Mm99999064), Lep (leptin; Mm00434759_m1), Adipoq (adiponectin; Mm00456425_m1), Fads2 ([…]; Mm00517221_m1), Fads1 ([…]; Mm00507605_m1), Ucp1 (uncoupling protein 1; Mm00494069_m1), Elovl3 (elongation of very long chain fatty acids 3; Mm00468164_m1), Cidea (cell death-inducing DNA fragmentation factor, alpha subunit-like effector A; Mm00432554_m1), Otop1 (otopetrin 1; Mm00554705_m1), and Rplp0 (ribosomal protein, large, P0; forward; 5'-[…]-3', reverse; 5'-[…]-3', probe (VIC-5'→3'-TAMRA); 5'-[…]-3'). The Rplp0 mRNA level was used as a reference and relative transcript levels were calculated with the comparative Ct method (2^-ΔΔCT) (Applied Bio-systems).

DIO mice [1] = experiment: Established DIO mice (HFD D12079B for 50 weeks), 11-week treatment: BW, calorie intake, fat mass
Procedure: (§2) In this report, we performed 3 independent studies in DIO mice to characterize anti-obesity effects of our D5D specific inhibitor. Male C57BL/6J mice were obtained from Charles River Laboratories (Yokohama, Japan) or CLEA Japan (Osaka, Japan). The mice were fed a laboratory chow and water ad libitum and housed in a 12-h light/dark cycle. Compound or vehicle was administered once daily between 15: 00–19:00 by oral gavage. Body weight (BW) and food intake were monitored throughout the experiment.
(§3) To evaluate the effect on daily EE, DIO mice fed a HFD that has 41% kcal from fat and contains no AA (D12079B; Research diets, Inc., see S1 Table for fatty acids composition) for 50 weeks were used. At 55 weeks of age, DIO mice were divided into two weight-matched groups (7 animals per group) and treated with vehicle or 10 mg/kg compound-326 for 11 weeks. […] Indirect calorimetry test was performed on day1, 8, 15, 21, and 56 during the study. Daily EE was analyzed using ANCOVA with body mass as covariate. After the treatment period, mice were sacrificed and fat tissues were harvested to evaluate the weights.

DIO mice [2] = experiment: Anti-obesity effects in DIO mice, 6-week treatment (HFD D12492): BW, calorie intake, observations
Procedure: as §2
Mice were fed a high-fat diet (HFD) that has 60% kcal from fat and contains 0.09% (w/w) AA (D12492; Research diets, Inc., see S1 Table for fatty acid profile) from 5 weeks of age, and they were divided into 5 groups (7 animals per group) at 11 weeks of age based on BW and daily food intake. In this experiment, 30 mg/kg sibutramine, a […], was used as a positive control for anti-obesity effects. Mice were orally administered compound-326 at doses of 0.1, 1, and 10 mg/kg, sibutramine at a dose of 30 mg/kg, or vehicle for 6 weeks. After 6 weeks, blood concentrations of DGLA and AA under non-fasting condition were evaluated as pharmacodynamics (PD) markers, and oral glucose tolerance test (OGTT) was performed.

DIO mice [3] = experiment: Indirect calorimetry test (energy expenditure, RER) in established DIO mice; conditions: 10 mg/kg
Procedure: as §3
Energy metabolism was evaluated using an Oxymax indirect calorimetry system (Columbus Instruments, Columbus, OH). Mice were individually housed in the chamber with a 12-h light/dark cycle. VO2 and VCO2 rates were determined with the following Oxymax system settings: air flow, 0.6 L/min; sample flow, 0.5 l/min; settling time, 10 min; and measuring time, 1 min. The system was calibrated against a standard gas mixture to measure O2 consumed (VO2, mL/kg/h) and CO2 generated (VCO2, mL/kg/h). Metabolic rate (VO2) and respiratory exchange ratio (RER; ratio of VCO2/VO2) were evaluated over a 24-h period. Energy expenditure was calculated as the product of the calorific value of oxygen (3.815+1.232×RER) and the volume of O2 consumed.

[4] = test system: epididymal fat of DIO mice; experiment: Satellite DIO mice, day 32: epididymal fat gene expression and BW; conditions: 10 mg/kg, 32 days
Description: as §1
In 6 weeks administration study of compound-326 (10 mg/kg), satellite animals were prepared to evaluate the gene expression levels in epididymal fat at the intermediate point (day 32). Mice fed a HFD (D12079B; Research diets, Inc.) from 5 weeks of age were divided into 2 groups at the age of 8 weeks (11 animals per group), and were administered 10 mg/kg compound-326 or vehicle for 32 days. After the treatment period, mice were sacrificed and epididymal fat were harvested for mRNA analysis. […] (B) RT-qPCR was performed in epididymal fat tissue after 32 days treatment. Data are expressed as mean ± SE (n=11). *p≤ 0.05 vs. DIO vehicle by Aspin-Welch test. ¶¶p≤ 0.01 vs. DIO vehicle by Student's t-test.

O=C1Cc2c(nc(OCC(F)(F)C(F)(F)F)n(-c3ccc(OCC(F)(F)F)cc3)c2=O)N1 [Compound-326, 2-(2,2,3,3,3-Pentafluoropropoxy)-3-[4-(2,2,2-trifluoroethoxy)phenyl]-5,7-dihydro-3H-pyrrolo[2,3-d]pyrimidine-4,6-dione]
D5D mRNA expression in epididymal fat (fat tissues of DIO mice): upregulated
D6D mRNA expression in epididymal fat (fat tissues of DIO mice): upregulated
beige fat cell-selective genes, including Ucp1, Cidea, Elovl3, and Otop1, in subcutaneous fat (fat tissues of DIO mice): no induction
epididymal Lep mRNA (fat tissues of DIO mice): decreased
epididymal Adipoq mRNA (fat tissues of DIO mice; did not reach statistical difference (p = 0.08)): decreased
Lep mRNA in subcutaneous fat (fat tissues of DIO mice; did not reach statistical significance (p = 0.08)): decrease
Adgre1 expression in epididymal fat (fat tissues of DIO mice; not significant): decreased
Cd68 expression in epididymal fat (fat tissues of DIO mice; not significant): decreased
Ccl2 expression in epididymal fat (fat tissues of DIO mice; significant effect): decreased
daily calorie intake (DIO mice [1]; 10 mg/kg p.o., 11 weeks): slightly decreased until day 21, followed by a trend toward increase
cumulative calorie intake (DIO mice [1]; 10 mg/kg p.o., 11 weeks (data not shown)): no appreciable change
BW (DIO mice [1]; 10 mg/kg p.o., 11 weeks, from day 21 until day 77): sustained and significant BW reduction
white adipose tissue (WAT) depot mass (DIO mice [1]; 10 mg/kg, 11 weeks, mesenteric fat p≤0.05, subcutaneous and epididymal fat p≤0.01 vs vehicle): marked decrease
BW (DIO mice [2]; compound-326 10 mg/kg p.o. once daily, 6 weeks): gradual decrease in BW
abnormal findings such as behavioral changes, diarrhea, or steatorrhea (DIO mice [2]; compound-326 0.1-10 mg/kg p.o., 6 weeks): No abnormal findings
daily calorie intake (DIO mice [2]; compound-326 at all doses (0.1, 1, 10 mg/kg), slight decrease at 10 mg/kg): not altered significantly
BW (DIO mice [2]; compound-326 lower doses (0.1 and 1 mg/kg) p.o., 6 weeks): not effective
daily EE relative to body mass (DIO mice [3]; day 15, independent of decreased BW): increased
daily EE (kcal/day) plotted against body mass (DIO mice [3]; days 1 and 8, vs vehicle): no difference
difference in daily EE lines vs vehicle (DIO mice [3]; days 21 and 56): became more apparent
RER (DIO mice [3]; relative to vehicle through the study, did not reach significance): lower
Adgre1 gene expression level in epididymal fat [4]: significantly decreased
BW [4]: no significant BW loss
Ccl2 gene expression level in epididymal fat [4]: significantly decreased
Cd68 gene expression level in epididymal fat [4]: significantly decreased
Il6 gene expression level in epididymal fat [4]: significantly decreased
